# Assay results reported in patent publication US20110294892A1, “Use of histone deacetylase inhibitors for the care of Philadephia-negative myeloproliferative syndromes” (priority 2008, published 2011).
# Read-outs that look alike come from different tables or passages of the source.
# Legend:
# [1] = system: patients with JAK2^V617F mutation suffering from myeloproliferative syndromes (PV, ET, IM); assay: Phase II open clinical study in JAK2V617F-positive Philadelphia-negative myeloproliferative syndromes; type: in vivo, human; details: 50 mg twice per day
# Description: Clinical study of ITF2357 in patients suffering from Philadelphia-negative myeloproliferative syndromes. Design: phase II, open, non-randomized study.
# Population in the study: 27 patients with the JAK2^V617F mutation suffering from myeloproliferative syndromes not adequately controlled by the standard pharmacological treatment (hydroxyurea).
# Duration of the treatment: up to a maximum of 24 weeks of continual administration.
# Secondary objective: to evaluate the effect of the treatment on the mutated JAK2 allele burden by quantitative PCR.
# [2] = system: JAK2^V617F mutated human cell line SET-2; assay: Cloning efficiency of the human cell line SET-2 in methyl-cellulose; type: cell-based; details: SET-2, 336 h; for EC50: read-out: EC50 (concentration required to reduce of 50% the number of clones)
# Description: For each experimental point 2 Petri dishes were done.
# [3] = system: lipopolysaccharide (LPS)-stimulated cultured human peripheral blood mononuclear cells (PBMCs); details: cited from earlier work
# [4] = system: LPS-induced serum TNFα and IFNγ; details: mice, oral administration of 1.0 to 10 mg/kg; cited from earlier work
# [5] = system: stem cells obtained from patients suffering from PV or ET; details: cited from earlier work
# rhHDAC1 = rhHDAC1 (Homo sapiens, UniProt Q13547); assay: biochemical
# Sequence of rhHDAC1 (Q13547 whole entry): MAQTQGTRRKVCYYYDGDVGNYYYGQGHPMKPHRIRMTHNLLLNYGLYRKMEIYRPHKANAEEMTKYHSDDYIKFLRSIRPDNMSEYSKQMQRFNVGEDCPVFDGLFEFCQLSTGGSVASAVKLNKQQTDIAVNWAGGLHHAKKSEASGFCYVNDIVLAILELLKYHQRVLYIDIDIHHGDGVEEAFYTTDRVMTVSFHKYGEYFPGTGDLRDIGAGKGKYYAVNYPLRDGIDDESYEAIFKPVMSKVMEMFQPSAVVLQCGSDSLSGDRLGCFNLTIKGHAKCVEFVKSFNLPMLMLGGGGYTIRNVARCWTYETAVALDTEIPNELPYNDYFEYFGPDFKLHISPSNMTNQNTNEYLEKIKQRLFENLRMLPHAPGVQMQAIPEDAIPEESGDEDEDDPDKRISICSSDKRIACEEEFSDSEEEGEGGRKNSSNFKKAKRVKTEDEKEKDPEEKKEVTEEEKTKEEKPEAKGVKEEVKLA
# Description: Values for rhHDAC1 inhibition are also reported: the enzyme was obtained from BPS Biosciences (cat n. 50001) and the test was carried out using a BIOMOL kit, according to supplier instructions.
smiles,measurement,setting,value
"CCN(CC)Cc1ccc2cc(COC(=O)Nc3ccc(C(=O)NO)cc3)ccc2c1 [ITF2357, Diethyl-[6-(4-hydroxycarbamoyl-phenylcarbamoyloxymethyl)-naphthalen-2-ylmethyl]-ammonium chloride]",volume of the spleen,"[1]; 4 to 12 weeks, patients who initially exhibited splenomegaly",significant reduction
same,"complete or partial response, share of cases","[1]; preliminary data, treatment 4 to 12 weeks, PV, ET or myelofibrosis patients",approximately 60%
same,EC50,[2],28 to 54 nM
same,IC50,[3]; read-out: concentration reducing by 50% the production of interferon-γ (IFNγ),25 nM
same,IC50,[3]; read-out: concentration reducing by 50% the release of intracellular interleukin (IL)-1α,12 nM
same,reduction of LPS-induced serum IFNγ,[4],more than 50%
same,reduction of LPS-induced serum TNFα,[4],more than 50%
same,concentrations inhibiting the clonogenic activity of stem cells,[5],sub-micromolar
CC(=O)SCC(=O)c1ccc(NS(=O)(=O)c2ccc(OCCCN(C)C)cc2)nc1 [KD-5170],inhibition at 1 µM,[2]; read-out: inhibition of clones formation at 1 μM,< 20%
same,IC50,rhHDAC1,24 nM
Nc1ccccc1NC(=O)c1ccc(CNc2nccc(-c3cccnc3)n2)cc1 [MGCD-0103],EC50,[2],1200 nM
Nc1ccccc1NC(=O)c1ccc(CNC(=O)OCc2cccnc2)cc1 [SNDX-275],EC50,[2],1820 nM
